Measured values taken from patent US11827616B2, “Heterocyclic compounds as pesticides” (Discovery Purchaser Corporation, priority 2018, dated 2023).

What was measured:
Format in all cases: in vivo
[1] = system: Musca domestica; assay: Musca domestica test; settings: application rate 100 ppm; adult houseflies; after 2 days
Procedure: Solvent: dimethyl sulfoxide
To produce a suitable active compound formulation, 10 mg of active compound are mixed with 0.5 ml of dimethyl sulfoxide, and the concentrate is diluted with water to the desired concentration.
Vessels containing a sponge treated with sugar solution and the desired concentration of active compound formulation are populated with 10 adult houseflies (Musca domestica).
After 2 days, the kill in % is determined. 100% means that all of the flies have been killed; 0% means that none of the flies have been killed.

[2] = system: Phaedon cochleariae; assay: Phaedon cochleariae spray test; settings: application rate 500 g/ha; after 7 days
Method in brief: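 Chinese cabbage leaf discs sprayed with compound formulated in acetone/DMF and water with 1000 ppm emulsifier, then infested with mustard beetle larvae once dry. Percent larval kill scored after 7 days (100% = all dead, 0% = none).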

[3] = system: Ctenocephalides felis; assay: Ctenocephalides felis oral test; settings: application rate 100 ppm in citrated cattle blood; after 2 days
Method in brief: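 About 20 unfed adult cat fleas fed via parafilm membrane on citrated cattle blood containing compound (DMSO formulation). Kill % scored after 2 days, 100% meaning all fleas dead.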

[4] = system: Spodoptera frugiperda; assay: Spodoptera frugiperda spray test; settings: application rate 500 g/ha; after 7 days
Method in brief: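 Maize leaf discs sprayed with compound formulated in acetone/dimethylformamide and diluted in water with 1000 ppm alkylaryl polyglycol ether emulsifier. Once dry, discs are infested with fall armyworm caterpillars. Efficacy in % read after 7 days: 100% all caterpillars killed, 0% none killed.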

[5] = system: Boophilus microplus; assay: Boophilus microplus injection test; settings: application rate 20 μg/animal, after 7 days
Method in brief: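 Compound dissolved in DMSO; 1 μl injected into the abdomen of engorged adult female ticks, five per group, kept in climate-controlled room. Efficacy scored after 7 days from fertile egg laying (100% = no fertile eggs; 0% = all fertile), with unclear eggs held ~42 days until hatching.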

[6] = system: Lucilia cuprina; assay: Lucilia cuprina test; settings: application rate 100 ppm; L1 larvae; after 2 days
Method in brief: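 About 20 first-instar larvae were placed in vessels of minced horsemeat with compound at the desired concentration. Compound was dissolved in DMSO and diluted in water. Percent kill scored after 2 days.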

[7] = system: Meloidogyne incognita; assay: Meloidogyne incognita test; settings: application rate 20 ppm; after 14 days
Procedure: Meloidogyne incognita Test
Solvent: 125.0 parts by weight of acetone
To produce a suitable active compound formulation, 1 part by weight of active compound is mixed with the stated amount of solvent and the concentrate is diluted to the desired concentration with water.
Vessels are filled with sand, active compound solution, an egg/larvae suspension of the southern root-knot nematode (Meloidogyne incognita) and lettuce seeds. The lettuce seeds germinate and the plants develop. The galls develop on the roots.
After 14 days, the nematicidal efficacy in % is determined by the formation of galls. 100% means that no galls were found; 0% means that the number of galls on the treated plants corresponds to the untreated control.

[8] = system: Nilaparvata lugens; assay: Nilaparvata lugens test; settings: application rate 500 g/ha; after 4 days
Procedure: (§1) Solvent: 78.0 parts by weight of acetone • • 1.5 parts by weight of dimethylformamide
(§2) Emulsifier: alkylaryl polyglycol ether
(§3) To produce a suitable active compound formulation, 1 part by weight of active compound is dissolved with the specified parts by weight of solvent and made up to the desired concentration with water containing an emulsifier concentration of 1000 ppm. To produce further test concentrations, the formulation is diluted with emulsifier-containing water.
Rice plants (Oryza sativa) are sprayed with the active compound formulation of the desired concentration and then infected with the brown planthopper (Nilaparvata lugens).
After 4 days, the efficacy in % is determined. 100% means that all of the planthoppers have been killed; 0% means that none of the planthoppers have been killed.

[9] = system: Nezara viridula; assay: Nezara viridula spray test; settings: application rate 500 g/ha; after 4 days
Procedure: Nezara viridula—Spray Test
as §1, §2, §3
Barley plants (Hordeum vulgare) infected with larvae of the Southern green shield bug (Nezara viridula) are srayed with an active compound formulation of the desired concentration.
After 4 days, the efficacy in % is determined. 100% means that all of the shield bugs have been killed; 0% means that none of the shield bugs have been killed.

[10] = system: Tetranychus urticae; assay: Tetranychus urticae spray test, OP-resistant; settings: application rate 500 g/ha; after 6 days
Method in brief: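 Bean leaf discs carrying all stages of OP-resistant Tetranychus urticae were sprayed with compound in acetone/dimethylformamide diluted in water containing alkylaryl polyglycol ether emulsifier (1000 ppm). Mortality scored after 6 days as % efficacy (100% = all mites killed).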

[11] = system: Myzus persicae; assay: Myzus persicae spray test; settings: application rate 500 g/ha; after 5 days
Procedure: Myzus persicae—Spray Test
Solvent: 78 parts by weight of acetone • • 1.5 parts by weight of dimethylformamide
as §2, §3
Discs of Chinese cabbage leaves (Brassica pekinensis) infested by all stages of the green peach aphid (Myzus persicae) are sprayed with an active compound formulation of the desired concentration.
After 5 days, the efficacy in % is determined. 100% means that all the aphids have been killed; 0% means that no aphids have been killed.

## CC(=O)N1CCC(Oc2ccc(COc3ccc(Cl)c4ccccc34)cn2)C1 (stereo not shown) [Example 4]
[1]
  efficacy (kill in %): 80%
[2]
  efficacy: 100%
[3]
  efficacy (kill in %): 100%
[4]
  efficacy: 100%
[5]
  efficacy (laying of fertile eggs): 100%
[6]
  efficacy (kill in %): 100%
[7]
  nematicidal efficacy (formation of galls): 90%

## CON(C)CCOc1cnc(COc2ccc(F)c(-c3cccc(OC(F)(F)F)c3)c2)c(F)c1 [Example 50]
[8]
  efficacy: 100%
[2]
  efficacy: 100%
[9]
  efficacy: 100%
[10]
  efficacy: 100%
[4]
  efficacy: 100%
[11]
  efficacy: 90%
